Data taken from US9090576B2, “2-substituted-p-quinone derivatives for treatment of oxidative stress diseases” (Edison Pharmaceuticals, Inc., priority 2008, dated 2015).
pEC50: −log10 of the molar value.

Columns and labels:
Assay type in all cases: cell-based
[1] = tested on: human dermal fibroblasts from Huntington's patients; test: Rescue of BSO-stressed fibroblasts from Huntington's patients (screen as Example A); conditions: Fibroblast, BSO-stressed Huntington's fibroblasts (GM 04281), less than about 150 nM, read-out: EC50, protection against Huntington's
Experimental: (§1) A culture with FRDA fibroblasts was started from a 1 ml vial with approximately 500,000 cells stored in liquid nitrogen. Cells were propagated in 10 cm cell culture dishes by splitting every third day in a ratio of 1:3 until nine plates were available. Once confluent, fibroblasts were harvested. For 54 micro titer plates (96 well-MTP) a total of 14.3 million cells (passage eight) were re-suspended in 480 ml medium, corresponding to 100 μl medium with 3,000 cells/well. The remaining cells were distributed in 10 cm cell culture plates (500,000 cells/plate) for propagation. The plates were incubated overnight at 37° C. in an atmosphere with 95% humidity and 5% CO2 to allow attachment of the cells to the culture plate.
(§2) MTP medium (243 μl) was added to a well of the microtiter plate. The test compounds were unfrozen, and 7.5 μl of a 5 mM stock solution was dissolved in the well containing 243 μl medium, resulting in a 150 μM master solution. Serial dilutions from the master solution were made. The period between the single dilution steps was kept as short as possible (generally less than 1 second).
(§3) Plates were kept overnight in the cell culture incubator. The next day, 10 μl of a 10 mM BSO solution were added to the wells, resulting in a 1 mM final BSO concentration. Forty-eight hours later, three plates were examined under a phase-contrast microscope to verify that the cells in the 0% control (wells E1-H1) were clearly dead. The medium from all plates was discarded, and the remaining liquid was removed by gently tapping the plate inversed onto a paper towel.
(§4) 100 μl of PBS containing 1.2 μM Calcein AM were then added to each well. The plates were incubated for 50-70 minutes at room temperature. After that time the PBS was discarded, the plate gently tapped on a paper towel and fluorescence (excitation/emission wavelengths of 485 nm and 525 nm, respectively) was read on a Gemini fluorescence reader. Data was imported into Microsoft Excel (EXCEL is a registered trademark of Microsoft Corporation for a spreadsheet program) and used to calculate the EC50 concentration for each compound.
Compounds of the invention were tested using the screen as described in Example A, but substituting FRDA cells with Huntington's cells obtained from the Coriell Cell Repositories (Camden, N.J.; repository number GM 04281). The compounds were tested for their ability to rescue human dermal fibroblasts from Huntington's patients from oxidative stress.

[2] = tested on: Human dermal fibroblasts from Friedreich's Ataxia patients; test: Rescue of BSO-stressed FRDA fibroblasts (Calcein AM viability); conditions: BSO-stressed FRDA fibroblasts (GM04078), less than about 150 nM, read-out: EC50, protection against FRDA
Experimental: An initial screen was performed to identify compounds effective for the amelioration of redox disorders. Test samples, 4 reference compounds (Idebenone, decylubiquinone, Trolox and α-tocopherol acetate), and solvent controls were tested for their ability to rescue FRDA fibroblasts stressed by addition of L-buthionine-(S,R)-sulfoximine (BSO), as described in Jauslin et al., Hum. Mol. Genet. 11(24):3055 (2002), Jauslin et al., FASEB J. 17:1972-4 (2003), and International Patent Application WO 2004/003565. […] This specific BSO-mediated cell death can be prevented by administration of antioxidants or molecules involved in the antioxidant pathway, such as α-tocopherol, selenium, or small molecule glutathione peroxidase mimetics. However, antioxidants differ in their potency, i.e. the concentration at which they are able to rescue BSO-stressed FRDA fibroblasts.
MEM (a medium enriched in amino acids and vitamins, catalog no. 1-31F24-I) and Medium 199 (M199, catalog no. 1-21F22-I) with Earle's Balanced Salts, without phenol red, were purchased from Bioconcept. Fetal Calf Serum was obtained from PAA Laboratories. Basic fibroblast growth factor and epidermal growth factor were purchased from PeproTech. Penicillin-streptomycin-glutamine mix, L-buthionine (S,R)-sulfoximine, (+)-α-tocopherol acetate, decylubiquinone, and insulin from bovine pancreas were purchased from Sigma. Trolox (6-hydroxy-2,5,7,8-tetramethylchromane-2-carboxylic acid) was obtained from Fluka. Idebenone was obtained from Chemo Iberica. Calcein AM was purchased from Molecular Probes. Cell culture medium was made by combining 125 ml M199 EBS, 50 ml Fetal Calf Serum, 100 U/ml penicillin, 100 μg/ml streptomycin, 2 mM glutamine, 10 μg/ml insulin, 10 ng/ml EGF, and 10 ng/ml bFGF; MEM EBS was added to make the volume up to 500 ml. A 10 mM BSO solution was prepared by dissolving 444 mg BSO in 200 ml of medium with subsequent filter-sterilization. During the course of the experiments, this solution was stored at +4° C. The cells were obtained from the Coriell Cell Repositories (Camden, N.J.; repository number GM04078) and grown in 10 cm tissue culture plates. Every third day, they were split at a 1:3 ratio.
The test samples were supplied in 1.5 ml glass vials. The compounds were diluted with DMSO, ethanol or PBS to result in a 5 mM stock solution. Once dissolved, they were stored at −20° C. Reference antioxidants (Idebenone, decylubiquinone, α-tocopherol acetate and trolox) were dissolved in DMSO.
Test samples were screened according to the following protocol:
as §1, §2
as §3, with “The medium from all plates was discarded, and the remaining liquid was removed by gently tapping the plate inversed onto a paper towel.” left out

[3] = tested on: human dermal fibroblasts from LHON patients; test: Rescue of BSO-stressed fibroblasts from LHON patients (screen as Example A); conditions: Fibroblast, BSO-stressed LHON fibroblasts (GM03858), less than about 150 nM, read-out: EC50, protection against LHON
Experimental: as §1, §2, §3, §4
Compounds of the invention were screened as described in Example A, but substituting FRDA cells with Leber's Hereditary Optic Neuropathy (LHON) cells obtained from the Coriell Cell Repositories (Camden, N.J.; repository number GM03858). The compounds were tested for their ability to rescue human dermal fibroblasts from LHON patients from oxidative stress.

[4] = tested on: human dermal fibroblasts from Parkinson's Disease patients; test: Rescue of BSO-stressed fibroblasts from Parkinson's Disease patients (screen as Example A); conditions: Fibroblast, BSO-stressed Parkinson's Disease fibroblasts (AG20439), less than about 150 nM, read-out: EC50, protection against PD
Experimental: as §1, §2, §3, §4
Compounds of the invention were screened as described in Example A, but substituting FRDA cells with Parkinson's Disease (PD) cells obtained from the Coriell Cell Repositories (Camden, N.J.; repository number AG20439). The compounds were tested for their ability to rescue human dermal fibroblasts from Parkinson's Disease patients from oxidative stress.

Measured: pEC50

COc1ccc(NC(=O)CCCC2=C(C)C(=O)C(C)=C(C)C2=O)cc1 [N-(4-methoxyphenyl)-4-(2,4,5-trimethyl-3,6-dioxocyclohexa-1,4-dienyl)butanamide]
> 6.82: all assays above

CC1=C(C)C(=O)C(CCCC(=O)Nc2c(Cl)cccc2Cl)=C(C)C1=O [N-(2,6-dichlorophenyl)-4-(2,4,5-trimethyl-3,6-dioxocyclohexa-1,4-dienyl)butanamide]
> 6.82: all assays above

CC1=C(C)C(=O)C(CCCC(=O)Nc2cc(F)cc(F)c2)=C(C)C1=O [N-(3,5-difluorophenyl)-4-(2,4,5-trimethyl-3,6-dioxocyclohexa-1,4-dienyl)butanamide]
> 6.82: all assays above

CC1=C(C)C(=O)C(CCCC(=O)Nc2ccccn2)=C(C)C1=O [N-(pyridin-2-yl)-4-(2,4,5-trimethyl-3,6-dioxocyclohexa-1,4-dienyl)butanamide]
> 6.82: all assays above

CC1=C(C)C(=O)C(CCNC(=O)Cc2ccc(Cl)cc2)=C(C)C1=O [2-(4-chlorophenyl)-N-(2-(2,4,5-trimethyl-3,6-dioxocyclohexa-1,4-dienyl)ethyl)acetamide]
> 6.82: all assays above

CC1=C(CCNC(N)=O)C(=O)C(c2ccc(Cl)cc2)=C(C)C1=O [1-(2-(5-(4-chlorophenyl)-2,4-dimethyl-3,6-dioxocyclohexa-1,4-dienyl)ethyl)urea]
> 6.82: all assays above

CC1=C(C)C(=O)C(CCNC(=O)NCCN(C)C)=C(C)C1=O [1-(2-(dimethylamino)ethyl)-3-(2-(2,4,5-trimethyl-3,6-dioxocyclohexa-1,4-dienyl)ethyl)urea]
> 6.82: all assays above

COc1ccc(S(=O)(=O)NCCC2=C(C)C(=O)C(C)=C(C)C2=O)cc1 [4-methoxy-N-(2-(2,4,5-trimethyl-3,6-dioxocyclohexa-1,4-dienyl)ethyl)benzenesulfonamide]
> 6.82: all assays above

CC1=C(CCNS(=O)(=O)c2ccc(F)cc2)C(=O)C(c2ccc(Cl)cc2)=C(C)C1=O [N-(2-(5-(4-chlorophenyl)-2,4-dimethyl-3,6-dioxocyclohexa-1,4-dienyl)ethyl)-4-fluorobenzenesulfonamide]
> 6.82: [1] | [2] | [4]

CC1=C(C)C(=O)C(CCCC(=O)Nc2cc(F)ccc2F)=C(C)C1=O [N-(2,5-difluorophenyl)-4-(2,4,5-trimethyl-3,6-dioxocyclohexa-1,4-dienyl)butanamide]
> 6.82: all assays above

CC1=C(C)C(=O)C(CCCC(=O)Nc2c(F)cccc2F)=C(C)C1=O [N-(2,6-difluorophenyl)-4-(2,4,5-trimethyl-3,6-dioxocyclohexa-1,4-dienyl)butanamide]
> 6.82: all assays above

CC1=C(C)C(=O)C(CCNC(=O)NCc2ccc(F)cc2)=C(C)C1=O [1-(4-Fluorobenzyl)-3-(2-(2,4,5-trimethyl-3,6-dioxocyclohexa-1,4-dienyl)ethyl)urea]
> 6.82: all assays above

CC1=C(C)C(=O)C(CCC(C)C(=O)Nc2ccccn2)=C(C)C1=O (stereo not shown) [2-methyl-N-(pyridin-2-yl)-4-(2,4,5-trimethyl-3,6-dioxocyclohexa-1,4-dienyl)butanamide]
> 6.82: all assays above

CC1=C(C)C(=O)C(CCNC(=O)NCc2ccncc2)=C(C)C1=O [1-(pyridin-4-ylmethyl)-3-(2-(2,4,5-trimethyl-3,6-dioxocyclohexa-1,4-dienyl)ethyl)urea]
> 6.82: all assays above

CC1=C(C)C(=O)C(CCNS(=O)(=O)c2ccc(F)cc2)=C(C)C1=O [4-fluoro-N-(2-(2,4,5-trimethyl-3,6-dioxocyclohexa-1,4-dienyl)ethyl)benzenesulfonamide]
> 6.82: all assays above

CC1=C(C)C(=O)C(CCNC(=O)c2ccc(C(F)(F)F)cc2)=C(C)C1=O [4-(Trifluoromethyl)-N-(2-(2,4,5-trimethyl-3,6-dioxocyclohexa-1,4-dienyl)ethyl)benzamide]
> 6.82: [2] | [3] | [4]

CC1=C(C)C(=O)C(CCNC(=O)c2ccc(F)cc2)=C(C)C1=O [4-fluoro-N-(2-(2,4,5-trimethyl-3,6-dioxocyclohexa-1,4-dienyl)ethyl)benzamide]
> 6.82: [2] | [3] | [4]

CC1=C(C)C(=O)C(CCNC(=O)c2ccc(Cl)cc2)=C(C)C1=O [4-chloro-N-(2-(2,4,5-trimethyl-3,6-dioxocyclohexa-1,4-dienyl)ethyl)benzamide]
> 6.82: [2] | [3] | [4]

CC1=C(C)C(=O)C(CCCC(=O)NC(C)(C)CO)=C(C)C1=O [N-(1-hydroxy-2-methylpropan-2-yl)-4-(2,4,5-trimethyl-3,6-dioxocyclohexa-1,4-dienyl)butanamide]
> 6.82: [2] | [4]

CC1=C(C)C(=O)C(CCC(C)(C)O)=C(CCNS(C)(=O)=O)C1=O [N-(2-(2-(3-hydroxy-3-methylbutyl)-4,5-dimethyl-3,6-dioxocyclohexa-1,4-dienyl)ethyl)methanesulfonamide]
> 6.82: [1] | [2] | [3]
